Source: patent US9107900B2, “Use of dronedarone for the preparation of a medicament for use in the prevention of cardiovascular hospitalization or of morality” (SANOFI, priority 2008, dated 2015)
Structures can show the parent of a compound that is named as a salt.

Test: blood potassium level from regular blood samples in the same clinical study
Type: in vivo, human
Settings: after the 24th month, taking into account the starting value; vs placebo; p<0.0001
Source text: The potassium concentration-modulating effect is clearly documented in the study by virtue of the results of analyses of regular blood samples taken throughout the duration of the study in the context of the monitoring of vital parameters.
The variations in potassium (in mmol/l) between the first and the last administration of the medicament of the study are included in FIG. 8, in which B signifies basal level, D signifies day and M signifies month.

## CCCCc1oc2ccc(NS(C)(=O)=O)cc2c1C(=O)c1ccc(OCCCN(CCCC)CCCC)cc1 [dronedarone hydrochloride, 2-n-Butyl-3-[4-(3-di-n-butylaminopropoxy)benzoyl]-5-methylsulphonamidobenzofuran]
  change in blood potassium level (analysis of covariance): significant different in favour of dronedarone
